Patent publication US9840478B2 (MERCK SHARP & DOHME CORP., priority 2013, dated 2017)
Like-named read-outs stand apart in the source and are kept apart here.

Test system: HIV-1 (H9IIIB strain)
Assay: Cell-based HIV infection assay using a reporter (Cell-Based), MT4-GFP cells
Conditions: 50% normal human serum, mean of at least two independent experiments, read-out: Cell-based IP
Method in brief: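 IC50 from 4-parameter dose-response of % viral growth inhibition, using the 48 h/24 h infected-cell ratio scaled between DMSO and a protease/integrase/NNRTI triple-drug control. Assay used MT4 cells with HIV-LTR-GFP reporter, pre-infected 24 h with HIV-1 H9IIIB, in 50% normal human serum.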

[1] = Human immunodeficiency virus 1, MT4-GFP cells infected with HIV-1 H9IIIB

`O=C(C[C@@H](c1ccc(F)cc1)c1cc(F)cc(F)c1)Nc1cncc(F)c1CC[C@H]1CNCCN1S(=O)(=O)Cc1ccc(C(F)(F)F)cc1` [Example 310, (3S)-3-(3,5-difluorophenyl)-3-(4-fluorophenyl)-N-(5-fluoro-4-{2-[(2S)-1-{[4-(trifluoromethyl)benzyl]sulfonyl}piperazin-2-yl]ethyl}pyridin-3-yl)propanamide] showed an IC50 [1] of 1700 nM.
`O=C(C[C@@H](c1ccc(F)cc1)c1cc(F)cc(F)c1)Nc1cncc(F)c1CC[C@H]1CNCCN1S(=O)(=O)c1ccc(-c2ccccn2)s1` [Example 311, (3S)-3-(3,5-difluorophenyl)-3-(4-fluorophenyl)-N-[5-fluoro-4-(2-{(2S)-1-[(5-pyridin-2-ylthiophen-2-yl)sulfonyl]piperazin-2-yl}ethyl)pyridin-3-yl]propanamide] was tested, and the IC50 [1] was 20 nM.
With `CCOC(=O)c1nc(-c2ccc(S(=O)(=O)N3CCNC[C@@H]3CCc3c(F)cncc3NC(=O)C[C@@H](c3ccc(F)cc3)c3cc(F)cc(F)c3)s2)no1` [Example 312, ethyl 3-[5-({(2S)-2-[2-(3-{[(3S)-3-(3,5-difluorophenyl)-3-(4-fluorophenyl)propanoyl]amino}-5-fluoropyridin-4-yl)ethyl]piperazin-1-yl}sulfonyl)thiophen-2-yl]-1,2,4-oxadiazole-5-carboxylate] the IC50 [1] was 140 nM.
In the case of `CS(=O)(=O)c1ccc(S(=O)(=O)N2CCNC[C@@H]2CCc2c(F)cncc2NC(=O)C[C@@H](c2ccc(F)cc2)c2cc(F)cc(F)c2)cc1` [Example 313, (3S)-3-(3,5-difluorophenyl)-N-(5-fluoro-4-{2-[(2S)-1-{[4-(methylsulfonyl)phenyl]sulfonyl}piperazin-2-yl]ethyl}pyridin-3-yl)-3-(4-fluorophenyl)propanamide], the IC50 [1] is reported as 48 nM.
`O=C(C[C@@H](c1ccc(F)cc1)c1cc(F)cc(F)c1)Nc1cncc(F)c1CC[C@H]1CNCCN1S(=O)(=O)c1ccc(OC(F)(F)F)cc1` [Example 314, (3S)-3-(3,5-difluorophenyl)-3-(4-fluorophenyl)-N-(5-fluoro-4-{2-[(2S)-1-{[4-(trifluoromethoxy)phenyl]sulfonyl}piperazin-2-yl]ethyl}pyridin-3-yl)propanamide] was tested, and the IC50 [1] was 9.2 nM.
With `O=C(C[C@@H](c1ccc(F)cc1)c1cc(F)cc(F)c1)Nc1cncc(F)c1CC[C@H]1CNCCN1S(=O)(=O)CC(F)(F)F` [Example 315, (3S)-3-(3,5-difluorophenyl)-3-(4-fluorophenyl)-N-[5-fluoro-4-(2-{(2S)-1-[(2,2,2-trifluoroethyl)sulfonyl]piperazin-2-yl}ethyl)pyridin-3-yl]propanamide] the IC50 [1] was 1900 nM.
In the case of `Cn1cc(S(=O)(=O)N2CCNC[C@@H]2CCc2c(F)cncc2NC(=O)C[C@@H](c2ccc(F)cc2)c2cc(F)cc(F)c2)cn1` [Example 316, (3S)-3-(3,5-difluorophenyl)-N-[5-fluoro-4-(2-{(2S)-1-[(1-methyl-1H-pyrazol-4-yl)sulfonyl]piperazin-2-yl}ethyl)pyridin-3-yl]-3-(4-fluorophenyl)propanamide], the IC50 [1] is reported as 19 nM.
`CCCS(=O)(=O)N1CCNC[C@@H]1CCc1c(F)cncc1NC(=O)C[C@@H](c1ccc(F)cc1)c1cc(F)cc(F)c1` [Example 317, (3S)-3-(3,5-difluorophenyl)-3-(4-fluorophenyl)-N-(5-fluoro-4-{2-[(2S)-1-(propylsulfonyl)piperazin-2-yl]ethyl}pyridin-3-yl)propanamide] was tested, and the IC50 [1] was 24 nM.
Work on `CC(=O)Nc1nc(C)c(S(=O)(=O)N2CCNC[C@@H]2CCc2c(F)cncc2NC(=O)C[C@@H](c2ccc(F)cc2)c2cc(F)cc(F)c2)s1` [Example 318, (3S)-N-(4-{2-[(2S)-1-{[2-(acetylamino)-4-methyl-1,3-thiazol-5-yl]sulfonyl}piperazin-2-yl]ethyl}-5-fluoropyridin-3-yl)-3-(3,5-difluorophenyl)-3-(4-fluorophenyl)propanamide] yielded an IC50 [1] of 97 nM.
Compound `O=Cc1ccc(S(=O)(=O)N2CCNC[C@@H]2CCc2c(F)cncc2NC(=O)C[C@@H](c2ccc(F)cc2)c2cc(F)cc(F)c2)cc1` [Example 319, (3S)-3-(3,5-difluorophenyl)-N-[5-fluoro-4-(2-{(2S)-1-[(4-formylphenyl)sulfonyl]piperazin-2-yl}ethyl)pyridin-3-yl]-3-(4-fluorophenyl)propanamide] has an IC50 [1] of 59 nM.
`CC(=O)Nc1cccc(S(=O)(=O)N2CCNC[C@@H]2CCc2c(F)cncc2NC(=O)C[C@@H](c2ccc(F)cc2)c2cc(F)cc(F)c2)c1` [Example 320, (3S)-N-(4-{2-[(2S)-1-{[3-(acetylamino)phenyl]sul-fonyl}piperazin-2-yl]ethyl}-5-fluoropyridin-3-yl)-3-(3,5-difluorophenyl)-3-(4-fluorophenyl)propanamide] was tested, and the IC50 [1] was 36 nM.
For `O=C(C[C@@H](c1ccc(F)cc1)c1cc(F)cc(F)c1)Nc1cncc(F)c1CC[C@H]1CNCCN1S(=O)(=O)c1cnc2ccccc2c1` [Example 321, (3S)-3-(3,5-difluorophenyl)-3-(4-fluorophenyl)-N-(5-fluoro-4-{2-[(2S)-1-(quinolin-3-ylsulfonyl)piperazin-2-yl]ethyl}pyridin-3-yl)propanamide], the IC50 [1] was 29 nM.
Work on `O=C(C[C@@H](c1ccc(F)cc1)c1cc(F)cc(F)c1)Nc1cncc(F)c1CC[C@H]1CNCCN1S(=O)(=O)N1CCc2ccccc2C1` [Example 322, (3S)-3-(3,5-difluorophenyl)-N-(4-{2-[(2S)-1-(3,4-dihydroisoquinolin-2(1H)-ylsulfonyl)piperazin-2-yl]ethyl}-5-fluoropyridin-3-yl)-3-(4-fluorophenyl)propanamide] yielded an IC50 [1] of 530 nM.
With `O=C(C[C@@H](c1ccc(F)cc1)c1cc(F)cc(F)c1)Nc1cncc(F)c1CC[C@H]1CNCCN1S(=O)(=O)N1CCCC1` [Example 323, (3S)-3-(3,5-difluorophenyl)-3-(4-fluorophenyl)-N-(5-fluoro-4-{2-[(2S)-1-(pyrrolidin-1-ylsulfonyl)piperazin-2-yl]ethyl}pyridin-3-yl)propanamide] the IC50 [1] was 4.8 nM.
`CC(C)NS(=O)(=O)N1CCNC[C@@H]1CCc1c(F)cncc1NC(=O)C[C@@H](c1ccc(F)cc1)c1cc(F)cc(F)c1` [Example 324, (3S)-3-(3,5-difluorophenyl)-N-[5-fluoro-4-(2-{(2S)-1-[(1-methylethyl)sulfamoyl]piperazin-2-yl}ethyl)pyridin-3-yl]-3-(4-fluorophenyl)propanamide] showed an IC50 [1] of 40 nM.
Compound `O=C(C[C@@H](c1ccc(F)cc1)c1cc(F)cc(F)c1)Nc1cncc(F)c1CC[C@H]1CNCCN1S(=O)(=O)N1CCCCC1` [Example 325, (3S)-3-(3,5-difluorophenyl)-3-(4-fluorophenyl)-N-(5-fluoro-4-{2-[(2S)-1-(piperidin-1-ylsulfonyl)piperazin-2-yl]ethyl}pyridin-3-yl)propanamide] has an IC50 [1] of 13 nM.
In the case of `O=C(C[C@@H](c1ccc(F)cc1)c1cc(F)cc(F)c1)Nc1cncc(F)c1CC[C@H]1CNCCN1S(=O)(=O)N1CCOCC1` [Example 326, (3S)-3-(3,5-difluorophenyl)-N-(5-fluoro-4-{2-[(2S)-1-(morpholin-4-ylsulfonyl)piperazin-2-yl]ethyl}pyridin-3-yl)-3-(4-fluorophenyl)propanamide], the IC50 [1] is reported as 8 nM.
`O=C(C[C@@H](c1ccc(F)cc1)c1cc(F)cc(F)c1)Nc1cncc(F)c1CC[C@H]1CNCCN1S(=O)(=O)N1CC[C@@H](F)C1` [Example 327, (3S)-3-(3,5-difluorophenyl)-N-(5-fluoro-4-{2-[(2)S-1-{[(3R)-3-fluoropyrrolidin-1-yl]sulfonyl}piperazin-2-yl]ethyl}pyridin-3-yl)-3-(4-fluorophenyl)propanamide] showed an IC50 [1] of 9.4 nM.
For `O=C(C[C@@H](c1ccc(F)cc1)c1cc(F)cc(F)c1)Nc1cncc(F)c1CC[C@H]1CNCCN1S(=O)(=O)N1CC[C@@H](F)C1` [Example 328, (3S)-3-(3,5-difluorophenyl)-N-(5-fluoro-4-{2-[(2S)-1-{[(3S)-3-fluoropyrrolidin-1-yl]sulfonyl}piperazin-2-yl]ethyl}pyridin-3-yl)-3-(4-fluorophenyl)propanmide], the IC50 (MT4-GFP cells infected with HIV-1 H9IIIB) was 16 nM.
For `O=C(C[C@@H](c1ccc(F)cc1)c1cc(F)cc(F)c1)Nc1cncc(F)c1CC[C@H]1CNCCN1S(=O)(=O)N1CCC(F)(F)C1` [Example 329, (3S)-3-(3,5-difluorophenyl)-N-[4-(2-{(2)S-1-[(3,3-difluoropyrrolidin-1-yl)sulfonyl]piperazin-2-yl}ethyl)-5-fluoropyridin-3-yl]-3-(4-fluorophenyl)propanamide], the IC50 [1] was 47 nM.
Work on `O=C(C[C@@H](c1ccc(F)cc1)c1cc(F)cc(F)c1)Nc1cncc(F)c1CC[C@H]1CNCCN1S(=O)(=O)N1CCC(F)(F)CC1` [Example 330, (3S)-3-(3,5-difluorophenyl)-N-[4-(2-{(2S)-1-[(4,4-difluoropiperidin-1-yl)sulfonyl]piperazin-2-yl}ethyl)-5-fluoropyridin-3-yl]-3-(4-fluorophenyl)propanamide] yielded an IC50 [1] of 43 nM.
In the case of `O=C(C[C@@H](c1ccc(F)cc1)c1cc(F)cc(F)c1)Nc1cncc(F)c1CC[C@H]1CNCCN1S(=O)(=O)N1CCC(F)CC1` [Example 331, (3S)-3-(3,5-difluorophenyl)-N-[5-fluoro-4-(2-{(2S)-1-[(4-fluoropiperidin-1-yl)sulfonyl]piperazin-2-yl}ethyl)pyridin-3-yl]-3-(4-fluorophenyl)propanamide], the IC50 [1] is reported as 19 nM.
With `O=C(C[C@@H](c1ccc(F)cc1)c1cc(F)cc(F)c1)Nc1cncc(F)c1CC[C@H]1CNCCN1S(=O)(=O)N1CCCC(F)(F)C1` [Example 332, (3S)-3-(3,5-difluorophenyl)-N-[4-(2-{(2S)-1-[(3,3-difluoropiperidin-1-yl)sulfonyl]piperazin-2-yl}ethyl)-5-fluoropyridin-3-yl]-3-(4-fluorophenyl)propanamide] the IC50 [1] was 410 nM.
`O=C(C[C@@H](c1ccc(F)cc1)c1cc(F)cc(F)c1)Nc1cncc(F)c1CC[C@H]1CNCCN1S(=O)(=O)N1CCCC(F)C1` (stereo partly drawn) [Example 333, (3S)-3-(3,5-difluorophenyl)-N-[5-fluoro-4-(2-{(2S)-1-[(3-fluoropiperidin-1-yl)sulfonyl]piperazin-2-yl}ethyl)pyridin-3-yl]-3-(4-fluorophenyl)propanamide] was tested, and the IC50 [1] was 64 nM.
